The text below walks through data of PMC10046946, “Novel Phthalic-Based Anticancer Tyrosine Kinase Inhibitors: Design, Synthesis and Biological Activity” (Current Issues in Molecular Biology, 2023).

Data set [1] relates to K562 (chronic myelogenous leukemia). As to the kind of experiment: MTT cell proliferation assay, K562. Type of data set: cell-based. The conditions noted are these: Homo sapiens, K562, 72 h of exposition, read-out: Anti-proliferative activity IC50, K562. The procedure:
(§1) Tests to determine the effects of the synthesized compounds on cell viability and the half-maximal inhibitory concentration (IC50) were performed using the MTT assay, as described in our prior work.
(§2) The target compounds 5, 6, 8–12, 14, 15, 17–22 and 24–26 were tested for antiproliferative activity against six cancer cell lines: K562 (chronic myelogenous leukemia), HL-60 (promyelocytic leukemia), MCF-7 (breast adenocarcinoma), HepG2 (human liver cancer), A549 (lung carcinoma) and OKP-GS (renal cell carcinoma). The RPMI 1788 cells (B lymphocyte, human) were used as a control to evaluate the system toxicity of the studied compounds to normal cells. Sorafenib, nilotinib and lapatinib were utilized as reference standards for comparison.
Background: Tetrazolium dyes change colour on reduction, which living cells bring about.

The test system of data set [2] is HL-60 (promyelocytic leukemia). Description: MTT cell proliferation assay, HL-60. Type of data set: cell-based. The conditions noted are these: Homo sapiens, HL-60, 72 h of exposition, read-out: Anti-proliferative activity IC50, HL-60. On the procedure: as §1, §2
The test system of data set [3] is MCF-7 (breast adenocarcinoma). Description: MTT cell proliferation assay, MCF-7. The conditions noted are these: Homo sapiens, MCF7, MCF-7, 72 h of exposition, read-out: Anti-proliferative activity IC50, MCF-7. It counts as cell-based. On the procedure:
as §1, §2

Data set [4] relates to HepG2 (human liver cancer). Description: MTT cell proliferation assay, HepG2. It counts as cell-based. The conditions noted are these: Homo sapiens, HepG2, 72 h, HepG2, 72 h of exposition, read-out: Anti-proliferative activity IC50, HepG2. The procedure: as §1, §2
The subject of another data set is A549 (lung carcinoma). As to the kind of experiment: MTT cell proliferation assay, A549. It counts as cell-based. The conditions noted are these: Homo sapiens, A549, 72 h of exposition, read-out: Anti-proliferative activity IC50, A549. The procedure:
as §1, §2

For data set [5], the system named is OKP-GS (renal cell carcinoma). As to the kind of experiment: MTT cell proliferation assay, OKP-GS. The conditions noted are these: 72 h of exposition, read-out: Anti-proliferative activity IC50, OKP-GS. Type of data set: cell-based. The procedure:
as §1, §2

For data set [6], the system named is RPMI 1788 cells (B lymphocyte, human). As to the kind of experiment: MTT cell proliferation assay, normal RPMI 1788 cells. The conditions noted are these: normal human lymphoblastoid cells RPMI 1788, 72 h of exposition, read-out: Anti-proliferative activity IC50, RPMI 1788. It counts as cell-based. On the procedure: as §1, §2
The next data set deals with T1, EGFR (Homo sapiens, UniProt P00533).
T1 construct: purchased Promega
T1 sequence (P00533 25-1210): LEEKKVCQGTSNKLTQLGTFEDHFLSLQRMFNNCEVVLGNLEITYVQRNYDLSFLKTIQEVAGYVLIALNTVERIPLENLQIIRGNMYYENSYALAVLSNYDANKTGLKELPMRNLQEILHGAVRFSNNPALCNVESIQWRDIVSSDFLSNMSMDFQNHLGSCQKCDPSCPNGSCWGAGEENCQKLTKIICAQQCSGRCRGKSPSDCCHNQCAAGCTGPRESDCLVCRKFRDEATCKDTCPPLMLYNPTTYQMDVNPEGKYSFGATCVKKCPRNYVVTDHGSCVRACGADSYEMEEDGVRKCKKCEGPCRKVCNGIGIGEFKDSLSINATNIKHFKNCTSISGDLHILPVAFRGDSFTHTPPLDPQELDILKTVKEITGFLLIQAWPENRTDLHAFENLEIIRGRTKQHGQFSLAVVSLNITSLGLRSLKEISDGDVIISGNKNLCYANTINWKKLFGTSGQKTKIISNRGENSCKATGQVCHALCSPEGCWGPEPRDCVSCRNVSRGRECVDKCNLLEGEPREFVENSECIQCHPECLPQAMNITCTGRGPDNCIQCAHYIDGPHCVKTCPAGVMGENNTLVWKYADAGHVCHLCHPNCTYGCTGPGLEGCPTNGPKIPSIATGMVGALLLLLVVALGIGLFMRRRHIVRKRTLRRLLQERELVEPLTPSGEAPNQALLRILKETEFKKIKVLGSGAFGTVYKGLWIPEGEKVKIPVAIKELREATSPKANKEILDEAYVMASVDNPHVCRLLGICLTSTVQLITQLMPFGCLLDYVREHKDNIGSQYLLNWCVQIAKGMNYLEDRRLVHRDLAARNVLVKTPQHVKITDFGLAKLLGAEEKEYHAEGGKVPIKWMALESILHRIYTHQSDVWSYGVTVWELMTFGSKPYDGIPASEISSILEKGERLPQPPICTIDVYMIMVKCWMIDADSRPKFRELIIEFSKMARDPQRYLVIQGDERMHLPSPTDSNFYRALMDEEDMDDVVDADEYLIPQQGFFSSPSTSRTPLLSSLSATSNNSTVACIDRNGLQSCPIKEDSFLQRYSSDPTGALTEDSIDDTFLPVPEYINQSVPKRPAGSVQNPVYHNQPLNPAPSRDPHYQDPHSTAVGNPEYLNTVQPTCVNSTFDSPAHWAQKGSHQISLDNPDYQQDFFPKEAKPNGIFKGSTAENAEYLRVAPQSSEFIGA
Description: ADP-Glo kinase assay, EGFR. Type of data set: biochemical. A general note: ADP-Glo turns the ADP formed in a reaction into a luminescent signal.

The next data set addresses T2, HER2 (Homo sapiens, UniProt P04626).
T2 construct: purchased Promega
As to the kind of experiment: ADP-Glo kinase assay, HER2. It counts as biochemical. The procedure: (§3) The ADP-Glo kinase assay (Promega, Madison, WI, USA) was used to screen compounds 5, 8–10, 14, 17, 19 and 24 for the tyrosine kinase (Kinase Selectivity Profiling System TK-1, Promega, Madison, WI, USA) and serine/threonine kinase (Kinase Selectivity Profiling System Other/CK-1, Promega, Madison, WI, USA) inhibition effects according to the manufacturer’s technical manual. The luminescence data were analyzed as described in our prior work.
(§4) The selectivity of the potential kinase inhibitor against a specific protein kinase or a specific family of kinases was investigated using the Kinase Selectivity Profiling System TK-1, Other/CK-1 and ADP-Glo™ Kinase assay kit (Promega, Madison, WI, USA).

Another data set has as its target T3, HER4 (Homo sapiens, UniProt Q15303).
T3 construct: purchased Promega
As to the kind of experiment: ADP-Glo kinase assay, HER4. It counts as biochemical. On the procedure: as §3, §4

Data set [7] has as its target T4, IGF1R (insulin-like growth factor 1 receptor) (Homo sapiens, UniProt P08069).
T4 construct: purchased Promega
Description: ADP-Glo kinase assay, IGF1R. It counts as biochemical. On the procedure:
as §3, §4

The target of a further data set is T5, InsR (insulin receptor) (Homo sapiens, UniProt P06213).
T5 construct: purchased Promega
As to the kind of experiment: ADP-Glo kinase assay, InsR. It counts as biochemical. The procedure: as §3, §4

The target of another data set is T6, KDR (VEGFR-2) (Homo sapiens, UniProt P35968).
T6 construct: purchased Promega
T6 sequence (P35968 20-1356): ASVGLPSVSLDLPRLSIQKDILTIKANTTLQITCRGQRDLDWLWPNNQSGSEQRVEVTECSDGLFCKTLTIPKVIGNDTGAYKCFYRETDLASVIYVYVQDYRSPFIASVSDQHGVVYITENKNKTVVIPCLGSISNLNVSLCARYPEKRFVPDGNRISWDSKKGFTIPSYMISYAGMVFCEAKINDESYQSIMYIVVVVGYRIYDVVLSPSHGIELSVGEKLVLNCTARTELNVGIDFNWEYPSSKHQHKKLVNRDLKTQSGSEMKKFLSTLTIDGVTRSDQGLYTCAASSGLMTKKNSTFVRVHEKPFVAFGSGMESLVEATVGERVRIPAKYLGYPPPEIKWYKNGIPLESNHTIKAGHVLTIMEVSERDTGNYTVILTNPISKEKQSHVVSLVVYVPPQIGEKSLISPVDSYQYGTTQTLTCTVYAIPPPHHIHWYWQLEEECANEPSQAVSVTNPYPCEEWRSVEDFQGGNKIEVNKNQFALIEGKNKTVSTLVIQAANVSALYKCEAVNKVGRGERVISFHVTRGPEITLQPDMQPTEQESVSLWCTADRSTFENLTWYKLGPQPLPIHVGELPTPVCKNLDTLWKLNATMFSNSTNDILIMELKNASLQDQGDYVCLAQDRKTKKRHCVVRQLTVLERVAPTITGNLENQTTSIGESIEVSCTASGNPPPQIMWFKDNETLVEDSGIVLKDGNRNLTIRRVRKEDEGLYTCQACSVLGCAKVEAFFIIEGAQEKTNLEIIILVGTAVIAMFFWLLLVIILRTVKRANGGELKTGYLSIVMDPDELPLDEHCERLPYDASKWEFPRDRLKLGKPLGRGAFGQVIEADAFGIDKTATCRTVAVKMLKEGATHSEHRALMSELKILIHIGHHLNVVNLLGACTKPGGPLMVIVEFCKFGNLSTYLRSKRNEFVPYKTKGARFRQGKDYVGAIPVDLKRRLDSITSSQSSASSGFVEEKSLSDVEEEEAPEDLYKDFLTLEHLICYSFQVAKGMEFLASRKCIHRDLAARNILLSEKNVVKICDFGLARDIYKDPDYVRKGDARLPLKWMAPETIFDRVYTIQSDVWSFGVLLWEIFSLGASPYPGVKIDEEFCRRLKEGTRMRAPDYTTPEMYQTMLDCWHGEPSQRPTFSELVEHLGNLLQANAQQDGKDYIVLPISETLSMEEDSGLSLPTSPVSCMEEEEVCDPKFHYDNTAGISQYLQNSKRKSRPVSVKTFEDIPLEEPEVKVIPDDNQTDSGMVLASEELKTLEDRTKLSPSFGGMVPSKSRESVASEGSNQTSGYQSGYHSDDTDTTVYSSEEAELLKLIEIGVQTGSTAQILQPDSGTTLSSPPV
Description: ADP-Glo kinase assay, KDR. Type of data set: biochemical.

For another data set, the target named is T7, PDGFRα (Homo sapiens, UniProt P16234).
T7 construct: purchased Promega
T7 sequence (P16234 24-1089): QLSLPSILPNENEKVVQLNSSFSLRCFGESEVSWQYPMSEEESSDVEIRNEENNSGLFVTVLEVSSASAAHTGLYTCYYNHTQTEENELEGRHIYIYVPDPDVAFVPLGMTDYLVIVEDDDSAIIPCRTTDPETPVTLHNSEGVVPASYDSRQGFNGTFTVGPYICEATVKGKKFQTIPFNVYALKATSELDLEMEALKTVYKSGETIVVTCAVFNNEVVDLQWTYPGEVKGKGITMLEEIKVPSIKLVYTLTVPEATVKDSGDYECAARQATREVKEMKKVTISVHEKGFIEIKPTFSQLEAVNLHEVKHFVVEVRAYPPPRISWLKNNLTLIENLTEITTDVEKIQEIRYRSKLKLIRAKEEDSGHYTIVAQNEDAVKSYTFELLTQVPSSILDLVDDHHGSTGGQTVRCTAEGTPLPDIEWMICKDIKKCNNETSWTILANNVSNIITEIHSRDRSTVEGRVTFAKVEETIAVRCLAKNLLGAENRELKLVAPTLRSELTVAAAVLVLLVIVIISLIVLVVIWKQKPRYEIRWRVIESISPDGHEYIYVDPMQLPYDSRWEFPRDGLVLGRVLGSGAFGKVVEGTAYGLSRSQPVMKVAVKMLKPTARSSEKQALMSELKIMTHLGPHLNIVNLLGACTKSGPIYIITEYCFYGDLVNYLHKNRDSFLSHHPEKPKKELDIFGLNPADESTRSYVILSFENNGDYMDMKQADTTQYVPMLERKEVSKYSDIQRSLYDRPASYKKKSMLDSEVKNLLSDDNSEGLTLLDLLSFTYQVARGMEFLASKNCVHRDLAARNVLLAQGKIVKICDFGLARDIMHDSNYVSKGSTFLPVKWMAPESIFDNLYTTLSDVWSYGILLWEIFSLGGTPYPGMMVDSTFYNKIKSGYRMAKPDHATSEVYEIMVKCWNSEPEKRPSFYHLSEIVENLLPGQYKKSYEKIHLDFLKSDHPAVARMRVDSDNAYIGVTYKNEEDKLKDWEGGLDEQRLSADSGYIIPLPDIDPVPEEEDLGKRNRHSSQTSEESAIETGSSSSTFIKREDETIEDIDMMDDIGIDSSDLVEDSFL
Description: ADP-Glo kinase assay, PDGFRα. It counts as biochemical. The procedure:
as §3, §4

A further data set has as its target T8, PDGFRβ (Homo sapiens, UniProt P09619).
T8 construct: purchased Promega
Description: ADP-Glo kinase assay, PDGFRβ. It counts as biochemical. On the procedure:
as §3, §4

In the next data set the target is T9, Aurora A (Homo sapiens, UniProt O14965).
T9 construct: purchased Promega
T9 sequence (O14965 1-403): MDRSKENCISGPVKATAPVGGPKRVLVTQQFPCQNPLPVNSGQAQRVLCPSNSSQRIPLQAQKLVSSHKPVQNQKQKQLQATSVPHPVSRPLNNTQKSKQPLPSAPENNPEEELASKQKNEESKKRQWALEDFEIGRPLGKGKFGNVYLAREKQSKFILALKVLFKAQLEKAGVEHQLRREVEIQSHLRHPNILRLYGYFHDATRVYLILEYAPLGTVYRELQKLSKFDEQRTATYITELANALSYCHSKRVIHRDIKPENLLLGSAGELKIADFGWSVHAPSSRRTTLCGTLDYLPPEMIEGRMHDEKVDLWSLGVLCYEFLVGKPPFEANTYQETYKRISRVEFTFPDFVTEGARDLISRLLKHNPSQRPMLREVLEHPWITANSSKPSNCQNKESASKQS
Description: ADP-Glo kinase assay, Aurora A. Type of data set: biochemical. On the procedure:
as §3, §4

Another data set deals with T10, Aurora B (Homo sapiens, UniProt Q96GD4).
T10 construct: purchased Promega
T10 sequence (Q96GD4 whole entry): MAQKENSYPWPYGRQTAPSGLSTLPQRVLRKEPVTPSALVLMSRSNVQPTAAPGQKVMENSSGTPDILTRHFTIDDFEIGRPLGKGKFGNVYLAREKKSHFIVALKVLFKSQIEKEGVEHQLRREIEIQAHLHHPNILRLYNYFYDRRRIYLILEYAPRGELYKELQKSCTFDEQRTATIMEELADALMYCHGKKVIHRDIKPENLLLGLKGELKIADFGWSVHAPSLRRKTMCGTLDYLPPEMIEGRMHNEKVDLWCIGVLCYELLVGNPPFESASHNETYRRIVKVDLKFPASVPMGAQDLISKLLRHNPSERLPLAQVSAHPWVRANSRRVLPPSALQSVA
Description: ADP-Glo kinase assay, Aurora B. It counts as biochemical. On the procedure:
as §3, §4

T8 sequence (P09619 33-1106): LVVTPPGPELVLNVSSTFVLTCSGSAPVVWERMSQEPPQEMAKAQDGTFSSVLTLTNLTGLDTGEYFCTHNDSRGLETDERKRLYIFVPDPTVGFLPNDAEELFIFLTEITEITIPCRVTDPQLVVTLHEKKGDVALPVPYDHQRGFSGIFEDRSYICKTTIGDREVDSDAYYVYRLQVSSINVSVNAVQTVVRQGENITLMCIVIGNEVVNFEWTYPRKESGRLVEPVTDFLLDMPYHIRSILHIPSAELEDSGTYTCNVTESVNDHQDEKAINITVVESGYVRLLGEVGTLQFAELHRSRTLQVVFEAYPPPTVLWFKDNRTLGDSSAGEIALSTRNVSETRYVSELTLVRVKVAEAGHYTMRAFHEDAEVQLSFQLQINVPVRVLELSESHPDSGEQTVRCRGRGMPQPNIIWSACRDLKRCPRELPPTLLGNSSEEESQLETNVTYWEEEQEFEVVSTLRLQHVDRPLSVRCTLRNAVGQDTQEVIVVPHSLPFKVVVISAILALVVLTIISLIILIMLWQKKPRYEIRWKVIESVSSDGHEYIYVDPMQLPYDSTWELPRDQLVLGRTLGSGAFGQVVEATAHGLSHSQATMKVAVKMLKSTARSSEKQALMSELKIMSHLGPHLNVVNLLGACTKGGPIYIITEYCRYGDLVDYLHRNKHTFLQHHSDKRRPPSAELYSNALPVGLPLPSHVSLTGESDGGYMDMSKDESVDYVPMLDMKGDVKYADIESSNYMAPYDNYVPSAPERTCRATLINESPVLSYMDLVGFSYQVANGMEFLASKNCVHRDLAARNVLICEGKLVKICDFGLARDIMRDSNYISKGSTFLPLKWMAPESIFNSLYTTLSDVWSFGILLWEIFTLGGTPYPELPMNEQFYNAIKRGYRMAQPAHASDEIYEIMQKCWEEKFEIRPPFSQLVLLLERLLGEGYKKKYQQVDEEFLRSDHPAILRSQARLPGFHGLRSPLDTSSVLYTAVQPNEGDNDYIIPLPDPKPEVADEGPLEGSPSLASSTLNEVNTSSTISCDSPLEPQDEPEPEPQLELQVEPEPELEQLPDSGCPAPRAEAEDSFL

Usually IC50 stands for the point on the concentration scale where inhibition reaches its midpoint. For orientation: inhibition means the change of the read-out against control, counted positive when it falls. Read a high inhibition as a response far below the control. One may read the melting point as the temperature, or range, at which the solid turns liquid. With `Cc1cn(-c2cc(NC(=O)c3ccc(C(=O)Nc4cc([N+](=O)[O-])ccc4C)cc3)cc(C(F)(F)F)c2)cn1` [Compound 24, N1-(3-(4-methyl-1H-imidazol-1-yl)-5-(trifluoromethyl)phenyl)-N4-(2-methyl-5-nitrophenyl)terephthalamide], the melting point lay in the range of 269 to 270 °C. The half-maximal inhibitory concentration (IC50) in data set [1] stood at 17 ± 0.2 µM. Also, the IC50 in [2] was 26.4 ± 3.35 µM. For the same molecule, the IC50 in data set [3] was determined as 15.5 ± 1.16 µM. Also, in data set [4], the concentration for half-maximal inhibition (IC50) was over 50 µM. The IC50 in the data set with A549 (lung carcinoma) is over 50 µM. The concentration for half-maximal inhibition (IC50) in data set [5] was over 50 µM. Also, the concentration for half-maximal inhibition (IC50) in data set [6] came to 36.5 ± 0.86 µM. The molecule further showed an inhibition at 10 µM at EGFR of 2%. This molecule yielded an inhibition at 10 µM against HER2 of 49%. On HER4, this molecule showed an inhibition at 10 µM of 3%. The molecule also displayed an inhibition at 10 µM in [7] of 0%. At InsR (insulin receptor), this molecule gave an inhibition at 10 µM of 0%. In addition, testing at 10 µM against KDR (VEGFR-2) gave an inhibition of 0%. The molecule also returned an inhibition at 10 µM at PDGFRα of 0%. Testing at 10 µM against PDGFRβ gave an inhibition of 0%. The molecule further yielded an inhibition at 10 µM on Aurora A of 0%. The molecule also returned an inhibition at 10 µM against Aurora B of 3%.
In turn, `O=C(Nc1cccc(C(F)(F)F)c1)c1cccc(C(=O)N2CCN(C(=O)c3ccccc3F)CC2)c1` [Compound 8, 3-(4-(2-Fluorobenzoyl)piperazine-1-carbonyl)-N-(3-(trifluoromethyl)phenyl)benzamide] came in with a melting point of 145 to 147 °C. Also, the IC50 in data set [1] worked out at 18.3 ± 1.15 µM. In addition, the IC50 in [2] is 18.2 ± 1.02 µM. In data set [3], the half-inhibitory concentration (IC50) amounted to 24.7 ± 5.95 µM. The half-inhibitory concentration (IC50) in [4] was 35.49 ± 0.34 µM. Moreover, the IC50 with A549 (lung carcinoma) was over 50 µM. Further, the IC50 in data set [5] is over 50 µM. Further, the 50% inhibitory concentration (IC50) in data set [6] was 24.9 ± 1.17 µM. For the same molecule, the inhibition at 10 µM on EGFR amounted to 14%. Moreover, testing at 10 µM at HER2 gave an inhibition of 0%. This molecule had an inhibition at 10 µM against HER4 of 0%. In [7], this molecule returned an inhibition at 10 µM of 0%. Further, the inhibition at 10 µM against InsR (insulin receptor) came to 6%. The molecule also displayed an inhibition at 10 µM against KDR (VEGFR-2) of 34%. Moreover, on PDGFRα, the inhibition at 10 µM is 0%. Moreover, the inhibition at 10 µM at PDGFRβ turned out to be 0%. Further, the inhibition at 10 µM at Aurora A was found to be 0%. This molecule also displayed an inhibition at 10 µM against Aurora B of 0%.
In turn, `Cc1cn(-c2cc(NC(=O)c3cccc(C(=O)Nc4cc(-n5cnc(C)c5)cc(C(F)(F)F)c4)c3)cc(C(F)(F)F)c2)cn1` [Compound 10, N1,N3-bis(3-(4-methyl-1H-imidazol-1-yl)-5-(trifluoromethyl)phenyl)isophthalamide] showed a melting point of 304 to 306 °C. The IC50 in data set [1] came to 26 ± 2.38 µM. Also, in data set [2], the concentration for half-maximal inhibition (IC50) stood at 35.8 ± 3.19 µM. Further, in data set [3], the IC50 was determined as 38.5 ± 1.95 µM. In data set [4], the IC50 came to 23.2 ± 1.81 µM. For the same molecule, in the data set with A549 (lung carcinoma), the IC50 is over 50 µM. Moreover, the IC50 in data set [5] is 13.2 ± 1.3 µM. In addition, the concentration for half-maximal inhibition (IC50) in data set [6] is 13 ± 0.3 µM. This molecule displayed an inhibition at 10 µM at EGFR of 1%. At HER2, testing at 10 µM gave an inhibition of 19%. On HER4, testing at 10 µM gave an inhibition of 0%. For the same molecule, at 10 µM the inhibition in [7] was 0%. This molecule also showed an inhibition at 10 µM against InsR (insulin receptor) of 0%. For the same molecule, at KDR (VEGFR-2), 10 µM produced 33% inhibition. The molecule further came in with an inhibition at 10 µM against PDGFRα of 17%. Further, on PDGFRβ, the inhibition at 10 µM turned out to be 0%. At Aurora A, the inhibition at 10 µM was found to be 0%. For the same molecule, testing at 10 µM on Aurora B gave an inhibition of 0%.
